Broadly, the IC50 is the concentration at which inhibition is half-maximal.

Experiment [1] has as its target recombinant human KIT tyrosine kinase protein (Homo sapiens (Human), UniProt P10721). Description: KIT tyrosine kinase assay (ADP-Glo). The following applies: Table 98. In kind it is biochemical.
Experiment [2] deals with GIST-T1 cells. Description: GIST cell proliferation assay. The following applies: read-out: GIST-T1 IC50. In kind it is cell-based, human. From the text:
Gastrointestinal stromal tumors (GIST) are the most common adult sarcomas and the majority (85-90%) of GIST cases are caused by oncogenic mutations in the receptor tyrosine kinases (RTKs), KIT or PDGFRA, which result in constitutive activation of these receptors. Human GIST-derived cell line GIST-Ti which harboring a mutation in exon 11 of KIT was used for the measurement of inhibitory potency of the compounds.
GIST-T1 cells were purchased from Cosmo Bio (Tokyo, Japan) and cultured in 10% FBS containing DMEM. The assay was performed in 96-well plates and the IC50 of each compound was determined by CellTiter Glo Assay reagent and Victor X5 Multilabel Counter. Cells were seeded at a density of 2000 cells/90 μL/well in 96-well plates. Compound dilution, cell treatment and determination of IC50 were performed as described in the assay methods of M-07e Cell Proliferation Assay.

The mark [3] stands for this setting: Homo sapiens, GISTT1, 72 h, GIST-T1 cells (mutation in exon 11 of KIT), CellTiter Glo, 3 days.

Read-outs that look alike come from different tables or passages of the source.

recombinant human KIT tyrosine kinase protein, sequence (P10721 546-976): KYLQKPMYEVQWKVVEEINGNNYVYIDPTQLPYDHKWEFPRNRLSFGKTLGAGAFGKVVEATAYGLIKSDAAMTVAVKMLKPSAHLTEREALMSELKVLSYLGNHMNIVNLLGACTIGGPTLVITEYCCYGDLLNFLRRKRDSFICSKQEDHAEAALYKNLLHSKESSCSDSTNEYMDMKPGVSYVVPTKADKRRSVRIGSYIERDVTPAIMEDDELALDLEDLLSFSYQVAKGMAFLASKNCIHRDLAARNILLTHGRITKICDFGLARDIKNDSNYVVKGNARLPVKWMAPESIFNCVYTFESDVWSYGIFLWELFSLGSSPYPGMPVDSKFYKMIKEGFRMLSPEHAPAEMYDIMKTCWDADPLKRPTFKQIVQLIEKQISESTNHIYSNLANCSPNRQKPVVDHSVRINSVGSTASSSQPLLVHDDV

For `O=C(NCc1ccc(Oc2ccc(Cl)cc2)nc1)c1ccc2[nH]c(=O)[nH]c2c1` [Example 31], the IC50 in experiment [1] was 70 nM; in experiment [2] (Homo sapiens, GISTT1, 72 h), 70 nM.

Regarding `O=C(NCc1ccc(Oc2ccccc2F)nc1)c1ccc2[nH]c(=O)[nH]c2c1` [Example 32], the IC50 in experiment [1] and in experiment [2] (setting [3]) was 29 nM throughout.

For `O=C(NCc1ccc(Oc2cccc(F)c2)nc1)c1ccc2[nH]c(=O)[nH]c2c1` [Example 30], the IC50 was determined as 67 nM in experiment [1] and 67 nM in experiment [2] (Homo sapiens, GISTT1, 72 h).

On to `CC(C)n1c(=O)[nH]c2cc(C(=O)NCc3ccc(Oc4ccc(F)cc4)nc3)ccc21` [Compound 2, N-((6-(4-Fluorophenoxy)pyridin-3-yl)methyl)-1-isopropyl-2-oxo-2,3-dihydro-1H-benzim idazole-5-carboxamide], for which the IC50 in experiment [1] and in experiment [2] (setting [3]) was 450 nM in each case.

Consider `O=C(NCc1ccc(Oc2ccc(F)cc2)nc1)c1ccc2[nH]c(=O)[nH]c2c1` [Example 29], for which the IC50 in experiment [1] and in experiment [2] (setting [3]) was 56 nM each time.

Turning to `CCn1c(=O)[nH]c2cc(C(=O)NCc3ccc(Oc4ccc(F)cc4)nc3)ccc21` [Example 35], the IC50 in experiment [1] worked out at 83 nM; in experiment [2] (Homo sapiens, GISTT1, 72 h), 83 nM.

`Cn1c(=O)[nH]c2cc(C(=O)NCc3ccc(Oc4ccc(Cl)cc4)nc3)ccc21` [compound 34]: the IC50 is 58 nM in experiment [1] and 58 nM in experiment [2] (GIST-T1 cells (mutation in exon 11 of KIT), CellTiter Glo, 3 days).

Take `O=C(NCc1ccc(C(F)(F)F)nc1)c1ccc2[nH]c(=O)[nH]c2c1` [Example 28]: the IC50 in experiment [1] and in experiment [2] (setting [3]) was 3600 nM in each case.

The record behind these values is US20260042747A1, “KIT INHIBITORS, COMPOUNDS, PHARMACEUTICAL COMPOSITIONS, AND METHODS OF USE THEREOF” (Alivexis, Inc., priority 2022, published 2026).
